Data as given in PubChem BioAssay AID330 (DTP/NCI, 2004).
Where “and” joins values, the source holds several entries; their conditions need not be identical. Identical values can stand only once. Toxic doses and inconclusive results are not listed. Rule for the calls: active = survival T/C of 150% or more; inactive = T/C below 125% in these data.

Test system: P388 leukemia ip, CD2F1 mice, survival T/C
Experiment: NCI In Vivo Anticancer Drug Screen. Data for tumor model P388 Leukemia (intraperitoneal) in CD2F1 (CDF1) mice
Details: endpoint: median survival time, higher = longer survival
Summary of the method: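 Mice carrying the transplanted tumor received test compound or vehicle. Survival was recorded in each group, and the value is the treated-group measurement divided by that of the vehicle-treated control group.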

[1] = dose: 50.0 mg/kg/injection, schedule: Q01DX009 (ip), vehicle: Klucel (hydroxypropylcellulose) (HPC)
[2] = dose: 100.0 mg/kg/injection, schedule: Q01DX009 (ip), vehicle: Klucel (hydroxypropylcellulose) (HPC)
[3] = dose: 50.0 mg/kg/injection, schedule: Q01DX005 (ip), vehicle: saline with Tween-80
[4] = dose: 100.0 mg/kg/injection, schedule: Q01DX005 (ip), vehicle: saline with Tween-80

Measured: T/C

CC(C)=NNc1cc(N)nc2c1ncn2C1OC(CO)C(O)C1O (stereo unspecified)
inactive: dose: 12.5 mg/kg/injection, schedule: Q01DX005 (ip), vehicle: water 97 % of control | dose: 25.0 mg/kg/injection, schedule: Q01DX005 (ip), vehicle: water 94 % of control | dose: 50.0 mg/kg/injection, schedule: Q01DX005 (ip), vehicle: water 98 % of control | dose: 100.0 mg/kg/injection, schedule: Q01DX005 (ip), vehicle: water 96 % of control | dose: 200.0 mg/kg/injection, schedule: Q01DX005 (ip), vehicle: water 106 % of control

c1cnc2c(c1)-n1cccc1C1(CCCCC1)NN2
inactive: dose: 100.0 mg/kg/injection, schedule: Q01DX001 (ip), vehicle: saline with Tween-80 108 % of control | dose: 200.0 mg/kg/injection, schedule: Q01DX001 (ip), vehicle: saline with Tween-80 93 % of control | dose: 400.0 mg/kg/injection, schedule: Q01DX001 (ip), vehicle: saline with Tween-80 93 % of control

Clc1cc2c(cc1CO/N=C\c1ccc3c(c1)OCO3)OCO2
inactive: dose: 50.0 mg/kg/injection, schedule: Q04DX003 (ip), vehicle: saline sonified 90 % of control | dose: 100.0 mg/kg/injection, schedule: Q04DX003 (ip), vehicle: saline sonified 95 % of control | dose: 200.0 mg/kg/injection, schedule: Q04DX003 (ip), vehicle: saline sonified 90 % of control

CCOC(=O)Nc1cc2c(c(N)n1)N=C(c1ccccc1)CS2
inactive: dose: 75.0 mg/kg/injection, schedule: Q01DX005 (ip), vehicle: Klucel (hydroxypropylcellulose) (HPC) 100 % of control | dose: 150.0 mg/kg/injection, schedule: Q01DX005 (ip), vehicle: Klucel (hydroxypropylcellulose) (HPC) 95 % of control | dose: 300.0 mg/kg/injection, schedule: Q01DX005 (ip), vehicle: Klucel (hydroxypropylcellulose) (HPC) 97 % of control

O=C1C(=O)c2c(ccc3ccccc23)-c2ccccc21
inactive: dose: 50.0 mg/kg/injection, schedule: Q01DX005 (ip), vehicle: Klucel (hydroxypropylcellulose) (HPC) 100 % of control | [1] 104 % of control | dose: 100.0 mg/kg/injection, schedule: Q01DX005 (ip), vehicle: Klucel (hydroxypropylcellulose) (HPC) 97 % of control | [2] 100 % of control | dose: 200.0 mg/kg/injection, schedule: Q01DX005 (ip), vehicle: Klucel (hydroxypropylcellulose) (HPC) 104 % of control | dose: 200.0 mg/kg/injection, schedule: Q01DX009 (ip), vehicle: Klucel (hydroxypropylcellulose) (HPC) 86 % of control | dose: 400.0 mg/kg/injection, schedule: Q01DX009 (ip), vehicle: Klucel (hydroxypropylcellulose) (HPC) 94 % of control

O=C(NCCCl)OCC1=C(COC(=O)NCCCl)C(=O)c2ccccc2C1=O
inactive: dose: 12.5 mg/kg/injection, schedule: Q01DX005 (ip), vehicle: saline with Tween-80 100 % of control and 102 % of control | dose: 25.0 mg/kg/injection, schedule: Q01DX005 (ip), vehicle: saline with Tween-80 101 % of control and 106 % of control | [3] 110 % of control | [4] 113 % of control

CSc1nc(NC2OC(COC(C)=O)C(OC(C)=O)C(OC(C)=O)C2OC(C)=O)c(C(=O)CCl)c(=O)n1C (stereo unspecified)
inactive: [3] 102 % of control | [4] 96 % of control | dose: 200.0 mg/kg/injection, schedule: Q01DX005 (ip), vehicle: saline with Tween-80 92 % of control

COc1ccc(/C=N\N=C(/[O-])c2ccccc2O)cc1.COc1ccc(/C=N\N=C(/[O-])c2ccccc2O)cc1.[Cu+2].[OH3+].[OH3+]
inactive: dose: 25.0 mg/kg/injection, schedule: Q04DX002 (ip), vehicle: saline with Tween-80 98 % of control | dose: 50.0 mg/kg/injection, schedule: Q04DX002 (ip), vehicle: saline with Tween-80 93 % of control | dose: 100.0 mg/kg/injection, schedule: Q04DX002 (ip), vehicle: saline with Tween-80 93 % of control

COc1ccc(/C=C/c2nc(Nc3ccc(OC)cc3)c3ccccc3n2)cc1
inactive: dose: 50.0 mg/kg/injection, schedule: Q01DX009 (ip), vehicle: acetone 98 % of control | dose: 100.0 mg/kg/injection, schedule: Q01DX009 (ip), vehicle: acetone 91 % of control | dose: 200.0 mg/kg/injection, schedule: Q01DX009 (ip), vehicle: acetone 99 % of control

CNC(=O)OCc1c(COC(=O)NC)c(C(F)(F)F)n2c1CCC2
inactive: [1] 117 % of control | [2] 116 % of control

N=C(N)c1cn(C2OC(CO)C(O)C2O)c2ncnc(N)c12 (stereo unspecified)
active: dose: 1.33 mg/kg/injection, schedule: Q01DX009 (ip), vehicle: saline 178 % of control | dose: 2.0 mg/kg/injection, schedule: Q01DX009 (ip), vehicle: saline 187 % of control | dose: 3.0 mg/kg/injection, schedule: Q01DX009 (ip), vehicle: saline 183 % of control | dose: 4.5 mg/kg/injection, schedule: Q01DX009 (ip), vehicle: saline 192 % of control | dose: 7.5 mg/kg/injection, schedule: Q04DX003 (ip), vehicle: saline 163 % of control
